Test results published in patent publication EP0602465A1, “Use of CN substituted benzimidazoles” (BAYER AG, priority 1992, dated 1994).

Legend:
Assay in all cases: Coccidiosis in chickens: oocyst excretion in faeces (McMaster chamber)
Type in all cases: in vivo
Conditions in all cases: 3 days before until 8 days after infection, chicks 9 to 11 days old, 40 000 sporulated oocysts, 100 % = no effect, 0 % = full effect
E. tenella = test system: E. tenella
E.acervulina = test system: E.acervulina
E. maxima = test system: E. maxima

CC(C)OC(=O)N(Cc1ccccc1)Cn1c(C#N)nc2c(Br)cc(C(F)(F)F)cc21 [Beispiel 57]
E. tenella (E. tenella; Dosis 100 ppm in feed): 93% | E. tenella (E. tenella; Dosis 250 ppm in feed): 0% | E.acervulina Oocystenausscheidung in % im Vergleich zur unbehandelten infizierten Kontrolle (E.acervulina; Dosis 100 ppm in feed): 38% | E.acervulina Oocystenausscheidung in % im Vergleich zur unbehandelten infizierten Kontrolle (E.acervulina; Dosis 250 ppm in feed): 0,01% | E. maxima Oocytenausscheidung in % im Vergleich zur unbehandelten infizierten Kontrolle (E. maxima; Dosis 100 ppm in feed): 5,3% | E. maxima Oocytenausscheidung in % im Vergleich zur unbehandelten infizierten Kontrolle (E. maxima; Dosis 250 ppm in feed): 0%

CCCCN(Cn1c(C#N)nc2c(Br)cc(C(F)(F)F)cc21)C(=O)OC [Beispiel 37]
E. tenella (E. tenella; Dosis 100 ppm in feed): 32% | E. tenella (E. tenella; Dosis 250 ppm in feed): 0% | E.acervulina Oocystenausscheidung in % im Vergleich zur unbehandelten infizierten Kontrolle (E.acervulina; Dosis 100 ppm in feed): 28% | E.acervulina Oocystenausscheidung in % im Vergleich zur unbehandelten infizierten Kontrolle (E.acervulina; Dosis 250 ppm in feed): 0,5% | E. maxima Oocytenausscheidung in % im Vergleich zur unbehandelten infizierten Kontrolle (E. maxima; Dosis 100 ppm in feed): 26% | E. maxima Oocytenausscheidung in % im Vergleich zur unbehandelten infizierten Kontrolle (E. maxima; Dosis 250 ppm in feed): 0%
